From patent US20020058637A1, “Methods of inhibiting tau-protein kinase I activity, inhibiting neuronal cell death and treating alzheimer's disease and tau-protein kinase I” (priority 1993, published 2002)
“Also recorded” adds a separate entry of the source.

Legend:
[1] = tested on: hippocampus cells; experiment: Inhibiting action for the death of cranial nerve cells by AβP (living cell count, phase contrast microscope); type: cell-based, rat; details: for Numbers of Living Cells (%) After 6 hours / Numbers of Living Cells (%) After 21 hours: rat hippocampus cell culture, AβP 20 micromoles, oligonucleotide 1 micromole per 1 ml medium, 37° C., percentage to control
Excerpt: Numbers of many normal and healthy cells were counted by a phase contrast microscope as an index of the living cells after the treatment. Normal cells mean those which have morphologically flat circumference and many nerve cell projections while the degenerated cells were judged by checking the irregular shape, degeneration of the neural projections, etc. Numbers of the living cells were counted in a well. In the standard culture liquid, the cell numbers were not less than 400 per well. The result was confirmed by an immunohistochemical means.
The primary culture medium of hippocampus of rats was prepared in accordance with a method described in Brain Res., 126, 397-425 (1977). Thus, the hippocampus tissues were collected from embryo of the rats of 18 days after fertilization and digested in papain (protease) (10 U/ml) at 37° C. for 20 minutes. The resulting cells were added to a Dulbecco's modified Eagle's medium supplied with 5% bovine fetus serum, 5% horse serum, 10 micrograms/ml insulin, 0.1 mg/ml transferrin, 1 microgram/ml aprotinin, 1 mM sodium pyruvate and 84 micrograms/ml gentamycin. This was planted to a well for tissue culture covered with poly-L-lysine at the density of 2×10^5 cells/cm^2, cultured for three days and treated with 1 micromole of cytosine-beta-arabinofuranoside for 24 hours and the cells of the fifth day of the culture were used.
The culture medium of the hippocampus prepared by the above-mentioned method was subjected to the following treatments (b) to (d), numbers of the living cells with an elapse of time were counted and the result is given in Table
(a) Nontreated culture medium (control):
(b) TPKI-antisense (1 micromole) was added to 1 ml of the cell culture medium and, after five minutes, 20 micromoles of AβP was added followed by keeping at 37° C. for 24 hours.
(c) AβP (20 micromoles) was added to 1 ml of the cell cuture medium followed by keeping at 37° C. for 24 hours.
(d) TPKI-sense (1 micromole) was added to 1 ml of the cell culture medium and, after five minutes, 20 micromoles of AμP was added followed by keeping at 37° C. for 24 hours.

[2] = tested on: tau-protein; experiment: Phosphorylation of tau-protein by recombinant human TPK-I expressed in E. coli (phosphorylating method I); type: biochemical, bovine; details: room temperature, 20 hours
Description: tau-Protein extracted from bovine brain followed by purification (2 microliters; 1.5 mg/ml concentration) and 1 microliters of the above partially-purified enzyme solution were mixed. To the mixture was added a solution containing 2 mM adenosinetriphosphate and 2 mM magnesium acetate and [gamma-32P]adenosinetriphosphate so that the phosphorylation of tau-protein was conducted at room temperature for 20 hours whereby the amount of phosphoric acid incorporated in tau-protein was evaluated.

[3] = tested on: TPK-I; experiment: Phosphorylation of tau-protein by extract of treated hippocampus cells (phosphorylating activity of TPK-I); type: cell-based, rat; details: 24 hours
Description: Hippocampus cells were collected from the culture medium by washing with an ice-cooled phosphate buffer for three times. The cells were suspended in a buffer A (pH: 6.8) which contained 1 mM EGTA, 0.5 mM magnesium acetate and 20 mM 2-(N-morpholino)-ethanesulfonic acid containing a phosphatase inhibitor ([…]; manufactured by Seikagaku Kogyo) and a protease inhibitor (1 mM phenylmethylsulfonyl fluoride and each 1 micro gram/ml of leupeptin, pepstatin and aprotinin), homogenized and centrifuged at 14,000 rpm for one hour and the supernatant liquid was used for checking the phosphorylation.
The rat tau-protein expressed in E. coli BL21 by a gene recombination was purified by a method described in J. Biol. Chem., 267, 10897-10901 (1992).
The hippocampus extract (1 microliter) was added to a solution of the rat tau-protein (400 micrograms/ml) dissolved in a buffer A containing 1 mM [τ-^32P]ATP (10-20 Ci/mmole) and then 10 micromoles of okadaic acid was added to make the final volume 10 microliters. This was incubated at 37° C. for three hours and the reaction was stopped by adding a buffer for electrophoresis. After subjecting to a 10% polyacrylamide gel electrophoresis, the ^32p in the tau-protein was observed by a laser image analyzer (Fuji BAS 2000).

## 5′-ATGTCGGGGCGACCGAGA-3′ (listed as DNA, chemistry not given here) [TPKI-Sense, tested together with AβP, reference compound]
[1]
  Numbers of Living Cells (%) After 6 hours: 49.5%
  Numbers of Living Cells (%) After 21 hours: 17.1%

## partially-purified TPK-I: recombinant human-originated tau-protein kinase I (Seq. ID No. 1) expressed in E. coli BL21 (DE3), partially purified
[2]
  phosphoric acid incorporated into one molecule of tau-protein: 1.2 mol

## 5′-TCTCGGTCGCCCCGACAT-3′ (listed as DNA, chemistry not given here) [TPKI-Antisense, tested together with AβP]
[1]; TPKI-antisense and AβP on hippocampus cells, after 24 hours, magnifying power 400
  cytotoxity by AβP observed with phase contrast microscope: little being similar to the controls; also recorded: little and similar to the case of the control
[1]
  Numbers of Living Cells (%) After 6 hours: 83.0%
  Numbers of Living Cells (%) After 21 hours: 72.6%
[3]; TPKI-antisense and AβP versus only AβP
  phosphorylating activity of TPK-I relative to the case in which only AβP was acted: about one half; also recorded: about one-half
[3]; hippocampus cell supernatant, AβP 20 micromoles, TPKI-antisense 1 micromole, rat tau-protein substrate
  Phosphorylating Activity of TPKI: 31.6 unit/mg protein
